Laboratory results taken from patent US5607926A, “Cephalosporin antibiotics” (Microcide Pharmaceuticals, Inc., priority 1995, dated 1997).
Values after ≈ are worked out from the molar mass of the structure shown. Read-outs that look alike come from different tables or passages of the source.

How the values were obtained:
Type in all cases: cell-based
[1] = system: S. aureus ATCC 29213; assay: In vitro antibacterial evaluation, MIC by agar dilution, S. aureus ATCC 29213; conditions: Staphylococcus aureus, ATCC29213
Procedure: (§1) The compounds of the invention were evaluated against several β-lactamresistant bacteria strains by determining the minimum inhibitory concentration (MIC, μg/ml) of each compound with respect to each strain. The MIC, the lowest concentration of antibiotic which inhibits growth of the test organism, was determined by the agar dilution method.
(§2) To determine the MIC for bacterial isolates, the test compound was incorporated in a series of two-fold dilutions into liquified Mueller-Hinton agar. Upon solidification, a number of different bacterial strains were spot inoculated with a replicating device onto the agar surface. […] The procedures used in these studies have been standardized by the National Committee for Clinical Laboratory Standards (NCCLS), as per the NCCLS publication entitled METHODS FOR DILUTION ANTIMICROBIAL SUSCEPTIBILITY TESTS (1991), which is incorporated herein by reference.
(§3) Aliquots of antimicrobial agents were prepared in phosphate buffered saline (PBS) at pH 7.2. Tween 20 or DMSO was used as a solubilizing vehicle as needed. Standard methods of vortexing, sonicating and gentle heat were used to facilitate solubilizing the test agent. Typically, the concentration of the stock solution was 10× that of the highest drug concentration tested. A 1.28 mg/mL stock solution was used with a subsequent highest working concentration of 128 μg/mL. Serial two-fold dilutions were done through ≤0.25 μg/mL. Each drug level was tested in duplicate. Two-fold drug dilutions were done in sterile 50 mL tubes with a final drug volume of 5 mL. Upon the addition of 45 mL of molten agar, a 10-fold dilution resulted. Two, 25 mL. plates were then poured into 15×150 mm square Petri plates with grids and allowed to harden.
(§4) A control plate with a reference drug, either cefotaxime, vancomycin or imipenem, was used as the positive growth control. Stock concentrations of reference antibiotics were prepared and frozen at -80° C. Upon preparation, the control plates were sealed and stored in the refrigerator for up to 1 week prior to use; however, imipenem control plates had to be prepared just prior to use. All test plates were used within 24 hours of preparation.
(§5) Satisfactory results were obtained where the inoculum contained about 10^4 colony forming units (cfu) ±0.5 logs. Starting with pure cultures of the test isolates on agar plates, a few isolated colonies were transferred to a tube of nutrient broth and allowed to grow 4-6 hours at 35°-36° C. to reach log-phase growth. Dropwise addition of the broth culture to PBS was done to match a 0.5 McFarland turbidity standard equal to 10^8 cfu/mL. This was further diluted ten-fold in PBS to reach a working inoculum concentration of 10^7 cfu/mL. When 1 μL of the working inoculum was applied to the agar surface a concentration of about 10^4 cfu per spot was obtained.
(§6) Disposable sterile 1 μL loops were used to inoculate test plates, with each isolate in a designated grid on the agar plate. An alternate method of inoculation involved the use of a replica plater, a device with 48 steel pins allowing the simultaneous inoculation of multiple isolates. After the spots had dried, the plates were incubated at 35°-36° C. for 16-20 hours. Endpoints were assessed as the minimum inhibitory concentration (MIC) of antimicrobial agent.

[2] = system: S. aureus 76 (Meth^R)(lac^+); assay: In vitro antibacterial evaluation, MIC by agar dilution, S. aureus 76; conditions: Staphylococcus aureus, read-out: MIC
Procedure: as §1, §2, §3, §4, §5, §6

[3] = system: S. aureus Col8A (Meth^S)(lac^-); assay: In vitro antibacterial evaluation, MIC by agar dilution, S. aureus Col8A; conditions: Staphylococcus aureus
Procedure: as §1, §2, §3, §4, §5, §6
The novel agents of this invention are notable for their enhanced activity against S. aureus Col and Enterococci (E. faecium and E. faecalis). The S. aureus Col strain is a high-level PBP2a producer, whereas S. aureus Col 8A, its isogenic partner, lacks PBP2a. […] Thus, the compounds of the present invention are effective against PBP2a-producing bacteria.

[4] = system: S. haemolyticus (Meth^R); assay: In vitro antibacterial evaluation, MIC by agar dilution, S. haemolyticus; conditions: Staphylococcus haemolyticus, read-out: MIC
Procedure: as §1, §2, §3, §4, §5, §6

[5] = system: E. faecium ATCC 35667; assay: In vitro antibacterial evaluation, MIC by agar dilution, E. faecium ATCC 35667; conditions: Enterococcus faecium, ATCC35667, read-out: MIC
Procedure: as §1, §2, §3, §4, §5, §6

[6] = system: E. faecalis ATCC 29212; assay: In vitro antibacterial evaluation, MIC by agar dilution, E. faecalis ATCC 29212; conditions: Enterococcus faecalis, ATCC29212; E. faecalis ATCC 29212; read-out: MIC
Procedure: as §1, §2, §3, §4, §5, §6

[7] = system: E. coli ATCC 25922; assay: In vitro antibacterial evaluation, MIC by agar dilution, E. coli ATCC 25922; conditions: Escherichia coli, ATCC25922, read-out: MIC
Procedure: as §1, §2, §3, §4, §5, §6

[8] = system: P. aeruginosa ATCC 27853; assay: In vitro antibacterial evaluation, MIC by agar dilution, P. aeruginosa ATCC 27853; conditions: Pseudomonas aeruginosa, ATCC27853, read-out: MIC
Procedure: as §1, §2, §3, §4, §5, §6

[9] = S. aureus ATCC 29213, read-out: MIC

Structure (SMILES) | MIC [1] [µg/mL] | MIC [2] [µg/mL] | MIC [3] [µg/mL] | MIC [4] [µg/mL] | MIC [5] [µg/mL] | MIC [6] [µg/mL] | MIC [7] [µg/mL] | MIC [8] [µg/mL] | MIC [1, 9] [µg/mL]
CCCCCC(=O)N[C@@H]1C(=O)N2C(C(=O)O)=C(Sc3ccnn3-c3ccccc3)CS[C@H]12 [Cmpd 109, (7R)-7-[(hexanoyl)amino]-3-(1-N-phenylpyrazol-5-ylthio)-3-cephem-4-carboxylic acid] | 0.125 (≈ 0.264 µM) | 16 (≈ 33.9 µM) | 0.125 (≈ 0.264 µM) | 32 (≈ 67.7 µM) | 4 (≈ 8.46 µM) | 4 (≈ 8.46 µM) | > 32 | > 32 | –
O=C(Cc1ccco1)N[C@@H]1C(=O)N2C(C(=O)O)=C(Sc3ccnn3-c3ccccc3)CS[C@H]12 [Cmpd 111, (7R)-7-[(2-furylacetyl)amino]-3-(1-N-phenylpyrazol-5-ylthio)-3-cephem-4-carboxylic acid] | – | 16 (≈ 33.2 µM) | 0.25 (≈ 0.518 µM) | 32 (≈ 66.3 µM) | 4 (≈ 8.29 µM) | 4 (≈ 8.29 µM) | > 32 | > 32 | 0.5 (≈ 1.04 µM)
O=C(Cc1ccccc1)N[C@@H]1C(=O)N2C(C(=O)O)=C(Sc3ccnn3-c3cccc([N+](=O)[O-])c3)CS[C@H]12 [Cmpd 113, (7R)-7-[(Phenylacetyl)amino]-3-(1-N-(3-nitrophenyl)pyrazol-5-ylthio)-3-cephem-4-carboxylic acid] | 0.125 (≈ 0.233 µM) | 16 (≈ 29.8 µM) | 0.125 (≈ 0.233 µM) | > 32 | 4 (≈ 7.44 µM) | 1 (≈ 1.86 µM) | > 32 | > 32 | –
COc1ccc(-n2nccc2SC2=C(C(=O)O)N3C(=O)[C@@H](NC(=O)Cc4ccccc4)[C@H]3SC2)cc1 [Cmpd 114, (7R)-7-[(Phenylacetyl)amino]-3-(1-N-(4-methoxyphenyl)pyrazol-5-ylthio)-3-cephem-4-carboxylic acid] | – | 16 (≈ 30.6 µM) | 0.125 (≈ 0.239 µM) | 32 (≈ 61.2 µM) | 2 (≈ 3.83 µM) | 1 (≈ 1.91 µM) | > 32 | > 32 | 0.25 (≈ 0.478 µM)
O=C(Cc1cccs1)N[C@@H]1C(=O)N2C(C(=O)O)=C(Sc3ccnn3-c3ccccc3)CS[C@H]12 [Cmpd 116, (7R)-7-[(2-thienylacetyl)amino]-3-(1-N-phenylpyrazol-5-ylthio)-3-cephem-4-carboxylic acid] | – | 16 (≈ 32.1 µM) | 0.125 (≈ 0.251 µM) | 16 (≈ 32.1 µM) | 2 (≈ 4.01 µM) | 2 (≈ 4.01 µM) | > 32 | > 32 | 0.25 (≈ 0.501 µM)
COc1cccc(-n2nccc2SC2=C(C(=O)O)N3C(=O)[C@@H](NC(=O)Cc4ccccc4)[C@H]3SC2)c1 [Cmpd 117, (7R)-7-[(Phenylacetyl)amino]-3-(1-N-(3-methoxyphenyl)pyrazol-5-ylthio)-3-cephem-4-carboxylic acid] | – | 16 (≈ 30.6 µM) | 0.125 (≈ 0.239 µM) | 32 (≈ 61.2 µM) | 1 (≈ 1.91 µM) | 2 (≈ 3.83 µM) | > 32 | > 32 | 0.25 (≈ 0.478 µM)
Nc1nnc(SCC(=O)N[C@@H]2C(=O)N3C(C(=O)O)=C(Sc4ccnn4-c4ccccc4)CS[C@H]23)s1 [Cmpd 120] | 0.25 (≈ 0.456 µM) | 16 (≈ 29.2 µM) | 0.25 (≈ 0.456 µM) | 32 (≈ 58.4 µM) | 8 (≈ 14.6 µM) | 4 (≈ 7.3 µM) | > 32 | > 32 | –
O=C(O)C1=C(Sc2ccnn2-c2ccccc2)CS[C@@H]2[C@H](NC(=O)C(=NO)c3ccco3)C(=O)N12 [Cmpd 121, (7R)-7-[2-(2-furyl)-2-(hydroxyimino)acetamido]-3-(1-N-phenylpyrazol-5-ylthio)-3-cephem-4-carboxylic acid] | – | 8 (≈ 15.6 µM) | 0.5 (≈ 0.977 µM) | 16 (≈ 31.3 µM) | 2 (≈ 3.91 µM) | 0.5 to 1 (≈ 0.977 to 1.95 µM) | > 32 | > 32 | 0.5 (≈ 0.977 µM)
O=C(Cc1ccccc1)N[C@@H]1C(=O)N2C(C(=O)O)=C(Sc3ccnn3-c3ccc(F)cc3)CS[C@H]12 [Cmpd 123, (7R)-7-[(Phenylacetyl)amino]-3-(1-N-(4-fluorophenyl)pyrazol-5-ylthio)-3-cephem-4-carboxylic acid] | – | 8 (≈ 15.7 µM) | ≤ 0.06 | 16 (≈ 31.3 µM) | 4 (≈ 7.83 µM) | 2 (≈ 3.92 µM) | > 32 | > 32 | 0.06 (≈ 0.118 µM)
